Test results as given in patent US20080058269A1, “Insulin Releasing Peptides” (priority 2003, published 2008).
Where two headings read alike, the source gives them in different places.

Experiments:
BRIN-BD11 cells [1] = format: cell-based, rat; details: for Insulin-releasing action in the presence of verapamil (in words): 50 μM verapamil, calcium channel blocker; for Insulin-releasing action in cells depolarised with KCl (in words): 30 mM KCl
Method: (§1) Culture of insulin-secreting cells: Clonal rat insulin-secreting BRIN-BD11 cells were cultured in RPMI-1640 tissue culture medium containing 10% (v/v) fetal calf serum, 1% (v/v) antibiotics (100 U/ml penicillin, 0.1 mg/ml streptomycin) and 11.1 mM glucose. The production and characterisation of BRIN-BD11 cells are described elsewhere. Cells were maintained in sterile tissue culture flasks (Corning, Glass Works, UK) at 37° C. in an atmosphere of 5% CO2 and 95% air using LEEC incubator (Laboratory Technical Engineering, Nottingham, UK). In three experimental series using purified peptides from Agalychnis calcarifer, Bombina variegata and Rana saharica cells were cultured overnight with 25 μM forskolin, 10 nM PMA or 0.1 μg/ml pertussis toxin prior to acute tests.
Acute insulin release studies: Insulin release from BRIN-BD11 cells was determined using cell monolayers [McClenaghan N H, Barnett C R, Ah-Sing E, Abdel-Wahab Y H, O'Harte F P, Yoon T W, Swanston-Flatt S K and Flatt P R 1996 Characterization of a novel glucose-responsive insulin-secreting cell line, BRIN-BD11, produced by electrofusion. Diabetes 45 1132-1140]. The cells were harvested with the aid of trypsin/EDTA (Gibco), seeded into 24-multiwell plates (Nunc, Rosklide, Denmark) at a density of […] per well, and allowed to attach overnight. Prior to acute test, cells were preincubated for 40 min at 37° C. in a 1.0 ml Krebs Ringer bicarbonate buffer (115 mM NaCl, 4.7 mM KCl, 1.28 MM CaCl2, 1.2 MM KH2PO4, 1.2 mM MgSO4, 10 mM NaHCO3, 5 g/l bovine serum albumin, pH 7.4) supplemented with 1.1 mM glucose. Test incubations were performed for 20 min at 37° C. using the same buffer supplemented with 5.6 mM glucose in the absence (control) and presence of various venom fractions, peaks (equivalent to approx. 25 μl dried HPLC fraction) or test agents as indicated in the Figures. Cell viability after 20 min test incubations was assessed by modified neutral red assay [Hunt S M, Chrzanowska C, Barnnett C R, Brand H N and Fawell J K 1987 A comparison of in vitro cytotoxicity assays and their application to water samples. Alternatives to Laboratory Animals 15 20-29]. After incubation, aliquots of buffer were removed and stored at −20° C. for insulin radiomnimmunoassay [Flatt P R. and Bailey C J 1981 Abnormal plasma glucose and insulin responses in heterozygous lean (ob/+) mice. Diabetologia 20 573-577].

BRIN-BD11 cells [2] = test: Acute insulin release from BRIN-BD11 cells cultured overnight with forskolin, PMA or pertussis toxin; format: cell-based, rat; details: acute test at 5.6 mM glucose; for Stimulatory effect on insulin secretion in cells cultured overnight with PMA: 10 nM PMA overnight (protein kinase C pathway); for Stimulatory effect on insulin secretion in cells cultured overnight with pertussis toxin: 0.1 μg/ml pertussis toxin overnight (G-protein pathway); for Stimulatory effect on insulin secretion in cells cultured overnight with forskolin: 25 μM forskolin overnight (desensitised cyclic AMP-protein kinase A pathway)
Method: FIG. 8 illustrates the dependence of the stimulatory effects of 1653.2 Da purified peptide (peak 1.10) from Agalychnis calcarifer on intracellular pathways mediated by protein kinase A (forskolin), protein kinase C (PMA) or pertussis toxin-sensitive G-proteins. Legend: Acute effects of the 13 amino acid 1653.2 Da purified peptide (peak 1.10) from Agalychnis calcarifer on forskolin and PMA on insulin secretion from BRIN-BD11 cells cultured overnight in the absence (control) and presence of 25 μM forskolin, 10 nM PMA or 0.1 μg/ml pertussis toxin. Acute incubations were performed at 5.6 mM glucose. Values are the mean ±SEM for 8 separate observations. ***P<0.001 compared with 5.6 mM glucose alone under same culture conditions. ^ΔΔΔp<0.001 compared with respective test reagent following control culture.
FIG. 9 illustrates the dependence of the stimulatory effects of 1641.7 Da, 1662.6 Da, 1619.8 Da and 1650.5 Da purified peptides (peaks 21, 22, 23 and 24) from Bombina variegata on intracellular pathways mediated by protein kinase A (forskolin), protein kinase C (PMA) or pertussis toxin-sensitive G-proteins. Legend: Acute effects of 1641.7, 1662.6, 1619.8 and 1650.5 Da purified peptides (peaks 21, 22, 23 and 24) from Bombina variegata on forskolin and PMA on insulin secretion from BRIN-BD11 cells cultured overnight in the absence (control) and presence of 25 μM forskolin, 10 nM PMA or 0.1 μg/ml pertussis toxin. Acute incubations were performed at 5.6 mM glucose. Values are the mean ±SEM for 8 separate observations. **P<0.001 compared with 5.6 mM glucose alone under same culture conditions. ^ΔP<0.001 compared with respective test reagent following control culture.
FIG. 10 illustrates the dependence of the stimulatory effects of 4920.4 Da and 4801.2 Da purified peptides (peaks 5.1 and 5.4) from Rana saharica on intracellular pathways mediated by protein kinase A (forskolin), protein kinase C (PMA) or pertussis toxin-sensitive G-proteins. Legend: Acute effects of 4920.4 and 4801.2 Da purified peptides (peaks 5.1 and 5.4) from Rana saharica on forskolin and PMA on insulin secretion from BRIN-BD11 cells cultured overnight in the absence (control) and presence of 25 μM forskolin, 10 nM PMA or […] pertussis toxin. Acute incubations were performed at 5.6 mM glucose. Values are the mean ±SEM for 8 separate observations. ***P<0.001 compared with 5.6 mM glucose alone under same culture conditions. ^ΔΔP<0.001 compared with respective test reagent following control culture.
as §1
Acute insulin release studies: Insulin release from BRIN-BD11 cells was determined using cell monolayers [McClenaghan N H, Barnett C R, Ah-Sing E, Abdel-Wahab Y H, O'Harte F P, Yoon T W, Swanston-Flatt S K and Flatt P R 1996 Characterization of a novel glucose-responsive insulin-secreting cell line, BRIN-BD11, produced by electrofusion. Diabetes 45 1132-1140]. The cells were harvested with the aid of trypsin/EDTA (Gibco), seeded into 24-multiwell plates (Nunc, Rosklide, Denmark) at a density of […] per well, and allowed to attach overnight. […]

[3] = Table 10, no addition, 5.6 mM glucose, 8 observations, control 1.69 ± 0.17
[4] = Table 10, peptide plus KCl (30 mM), 5.6 mM glucose, 8 observations
[5] = Table 10, peptide plus verapamil (50 μM), 5.6 mM glucose, 8 observations
[6] = peptides from Rana saharica, 5.6 mM glucose, mean ± SEM, 3 observations, no-peptide control 1.87 ± 0.06

Row | Substance | Insulin-releasing action in the presence of verapamil (in words) (BRIN-BD11 cells [1]) | Insulin-releasing action in cells depolarised with KCl (in words) (BRIN-BD11 cells [1]) | Insulin secretion (ng/10^6 cells/20 min) (BRIN-BD11 cells [1]; [3]) | Insulin secretion (ng/10^6 cells/20 min) (BRIN-BD11 cells [1]; [4]) | Insulin secretion (ng/10^6 cells/20 min) (BRIN-BD11 cells [1]; [5]) | Insulin release (ng/10^6 cells/20 mins) (BRIN-BD11 cells [1]; [6]) | Stimulatory effect on insulin secretion in cells cultured overnight with PMA (BRIN-BD11 cells [2]) | Stimulatory effect on insulin secretion in cells cultured overnight with pertussis toxin (BRIN-BD11 cells [2]) | Stimulatory effect on insulin secretion in cells cultured overnight with forskolin (BRIN-BD11 cells [2]) | Insulin release (ng/10^6 cells/20 mins) (BRIN-BD11 cells [1]) | Insulin secretion (ng/10^6 cells/20 min) (BRIN-BD11 cells [1]; Table 9, no addition, 5.6 mM glucose, 8 observations, control 1.69 ± 0.17) | Insulin secretion (ng/10^6 cells/20 min) (BRIN-BD11 cells [1]; Table 9, peptide plus KCl (30 mM), 5.6 mM glucose, 8 observations) | Insulin secretion (ng/10^6 cells/20 min) (BRIN-BD11 cells [1]; Table 9, peptide plus verapamil (50 μM), 5.6 mM glucose, 8 observations) | Insulin secretion (ng/10^6 cells/20 min) (BRIN-BD11 cells [1]; Table 8, no addition, 5.6 mM glucose, control 1.68 ± 0.16) | Insulin secretion (ng/10^6 cells/20 min) (BRIN-BD11 cells [1]; Table 8, peptide plus KCl (30 mM), 5.6 mM glucose) | Insulin secretion (ng/10^6 cells/20 min) (BRIN-BD11 cells [1]; Table 8, peptide plus verapamil (50 μM), 5.6 mM glucose) | Insulin release (ng/10^6 cells/20 mins) (BRIN-BD11 cells [1]; peptides from Agalychnis calcarifer, 5.6 mM glucose, no-peptide control 1.71 ± 0.12)
1 | GIFSKFGRKKIKNLLISGLKNVGKEVGMDVVRTGIDIAGCKIKGEC [Peptide 5.1, peptide from Rana saharica, 98% ID to Esculentin-1] | not inhibited | clearly evident | 2.96 ± 0.32 ng/10^6 cells/20 min | 10.11 ± 0.81ΔΔΔ*** ng/10^6 cells/20 min | 2.88 ± 0.28 ng/10^6 cells/20 min | 3.32 ± 0.22 ng/10^6 cells/20 mins | abolished | abolished | abolished | – | – | – | – | – | – | – | –
2 | GIFSKLAGKKLKNLLISGLKNVGKEVGMDVVRTGIDIAGCKIKGEC [Peptide 5.4, peptide from Rana saharica matching Esculentin-1B] | not inhibited | clearly evident | 2.89 ± 0.19 ng/10^6 cells/20 min | 11.84 ± 0.98ΔΔΔ*** ng/10^6 cells/20 min | 2.79 ± 0.10 ng/10^6 cells/20 min | 3.30 ± 0.22 ng/10^6 cells/20 mins | abolished | abolished | abolished | – | – | – | – | – | – | – | –
3 | Pyr-QRLGHQWAVGHLM-amidated (N-terminal pyroglutamate, C-terminal amide) [Peptide 21, peptide from Bombina variegata, (His)^6Bombesin, 93% ID to bombesin] | not affected | clearly evident | – | – | – | – | did not affect | did not affect | abolished | 4.66 ± 0.24 ng/10^6 cells/20 mins | 3.65 ± 0.05 ng/10^6 cells/20 min | 13.68 ± 1.42ΔΔΔ*** ng/10^6 cells/20 min | 4.25 ± 0.82 ng/10^6 cells/20 min | – | – | – | –
4 | RRKPLFPFIPRPK [Peptide 1.10, 13 amino acid 1653.2 Da purified peptide from Agalychnis calcarifer] | not affected | clearly evident | – | – | – | – | did not affect | did not affect | abolished | – | – | – | – | 2.75 ± 0.12 ng/10^6 cells/20 min | 16.45 ± 0.10 ΔΔ*** ng/10^6 cells/20 min | 3.54 ± 0.20 ΔΔ*** ng/10^6 cells/20 min | 2.61 ± 0.11 ng/10^6 cells/20 mins
